Experimental data reported in patent US8841321B2, “Quinoline derivatives as antibacterial agents” (Janssen Pharmaceutica NV, priority 2005, dated 2014).
In brackets after ≈: the same amount, converted by molar mass.

Key:
Test in all cases: Microtitre plate assay, IC90 determination
Assay type in all cases: cell-based
[1] = system: EFA 29212 (Enterococcus faecalis (ATCC29212)); conditions: Enterococcus faecalis (ATCC29212)
[2] = system: SPY 8668 (Streptococcus pyogens (ATCC8668)); conditions: Streptococcus pyogens (ATCC8668)
[3] = system: STA 29213 (Staphylococcus aureus (ATCC29213)); conditions: Staphylococcus aureus (ATCC29213)
Protocol: (§1) The bacteria used in this study were grown overnight in flasks containing 100 ml Mueller-Hinton Broth (Becton Dickinson—cat. no. 275730) in sterile de-ionized water, with shaking, at 37° C. Stocks (0.5 ml/tube) were stored at −70° C. until use. Bacteria titrations were performed in microtiter plates and colony forming units (CFUs) were determined. In general, an inoculum level of approximately 100 CFUs was used for susceptibility testing.
(§2) Flat-bottom, sterile 96-well plastic microtiter plates were filled with 180 μl of sterile deionized water, supplemented with 0.25% BSA. Subsequently, stock solutions (7.8× final test concentration) of compounds were added in 45 μl volumes in column 2. Serial five-fold dilutions (45 μl in 180 μl) were made directly in the microtiter plates from column 2 to reach column 11. Untreated control samples with (column 1) and without (column 12) inoculum were included in each microtiter plate. Depending on the bacteria type, approximately 10 to 60 CFU per well of bacteria inoculum (100 TCID50), in a volume of 100 μl in 2.8× Mueller-Hinton broth medium, was added to the rows A to H, except column 12. The same volume of broth medium without inoculum was added to column 12 in row A to H. The cultures were incubated at 37° C. for 24 hours under a normal atmosphere (incubator with open air valve and continuous ventilation). At the end of incubation, one day after inoculation, the bacterial growth was quantitated fluorometrically. Therefore resazurin (0.6 mg/ml) was added in a volume of 20 μl to all wells 3 hours after inoculation, and the plates were re-incubated overnight. A change in colour from blue to pink indicated the growth of bacteria. The fluorescence was read in a computer-controlled fluorometer (Cytofluor Biosearch) at an excitation wavelength of 530 nm and an emission wavelength of 590 nm. The % growth inhibition achieved by the compounds was calculated according to standard methods. The IC90 (expressed in μg/ml) was defined as the 90% inhibitory concentration for bacterial growth.

[4] = system: SPN 6305 (Streptococcus pneumoniae (ATCC6305)); conditions: for IC90 (μg/ml) SPN 6305: Streptococcus pneumoniae (ATCC6305)
Protocol: as §1, §2

[5] = system: PAE 27853 (Pseudomonas aeruginosa (ATCC27853)); conditions: Pseudomonas aeruginosa (ATCC27853)
[6] = system: STA RMETH (methicilline resistant Staphylococcus aureus (MRSA), a clinical isolate from the University of Antwerp); conditions: for IC90: Staphylococcus aureus, MRSA, read-out: IC90 (μg/ml) STA RMETH

SMILES	IC90 (μg/ml) EFA 29212 [1]	IC90 (μg/ml) SPY 8668 [2]	IC90 (μg/ml) STA 29213 [3]	IC90 (μg/ml) SPN 6305 [4]	IC90 (μg/ml) PAE 27853 [5]	IC90 (μg/ml) STA RMETH [6]	IC90 ([4]; Streptococcus pneumoniae, ATCC6305, Streptococcus pneumoniae (ATCC6305), read-out: IC90 (μg/ml) SPN 6305)	IC90 [6]
COc1nc2ccc(C)cc2cc1C(c1ccccc1)C(O)(CCCCCN(C)C)c1ccccc1 (single isomer, unassigned) [Compound 152]	38.3 µg/mL (≈ 79.4 µM)	38.3 µg/mL (≈ 79.4 µM)	7.7 µg/mL (≈ 16 µM)	1.5 µg/mL (≈ 3.11 µM)	38.3 µg/mL (≈ 79.4 µM)	–	–	–
COc1nc2ccc(Br)cc2cc1C(c1ccc(Cl)c(Cl)c1)C(O)(CCCCN1CCCCC1)c1ccccc1 (single isomer, unassigned) [Compound 173]	2.03 µg/mL (≈ 3.16 µM)	0.91 µg/mL (≈ 1.42 µM)	2.03 µg/mL (≈ 3.16 µM)	0.91 µg/mL (≈ 1.42 µM)	2.03 µg/mL (≈ 3.16 µM)	–	–	–
COc1ccc(C(O)(CCCCN2CCCCC2)C(c2ccc(C)cc2)c2cc3cc(Br)ccc3nc2OC)cc1 (single isomer, unassigned) [Compound 168]	1.95 µg/mL (≈ 3.16 µM)	1.95 µg/mL (≈ 3.16 µM)	2.19 µg/mL (≈ 3.55 µM)	2.46 µg/mL (≈ 3.98 µM)	1.95 µg/mL (≈ 3.16 µM)	–	–	–
COc1nc2ccc(-c3ccco3)cc2cc1C(c1ccccc1)C(O)(CCCCN(C)C)c1ccccc1 (racemic) [Compound 83]	–	–	1.65 µg/mL (≈ 3.17 µM)	1.65 µg/mL (≈ 3.17 µM)	–	5.21 µg/mL (≈ 10 µM)	–	–
COc1nc2ccc(Br)cc2cc1C(c1ccccc1)C(O)(CCCCCN(C)C)c1ccccc1 (single isomer, unassigned) [Compound 154]	–	8.68 µg/mL (≈ 15.9 µM)	1.75 µg/mL (≈ 3.2 µM)	1.75 µg/mL (≈ 3.2 µM)	8.68 µg/mL (≈ 15.9 µM)	–	–	–
COc1nc2ccc(Br)cc2cc1C(c1ccccc1)C(O)(CCCCN(C)Cc1ccccc1)c1ccc2ccccc2c1 (racemic) [Compound 76]	–	10.46 µg/mL (≈ 15.9 µM)	–	2.34 µg/mL (≈ 3.55 µM)	–	–	–	–
COc1nc2ccccc2cc1C(c1ccc(-c2ccccc2)cc1)C(O)(CCCCN(C)C)c1ccc2ccccc2c1 (stereo not drawn) [Compound 56]	–	–	1.84 µg/mL (≈ 3.17 µM)	–	–	5.81 µg/mL (≈ 10 µM)	2.31 µg/mL (≈ 3.98 µM)	–
COc1nc2ccc(Br)cc2cc1C(c1ccccc1)C(O)(CCCCN1CCN(C)CC1)CCc1cccc2ccccc12 (single isomer, unassigned) [Compound 142]	–	–	2.65 µg/mL (≈ 3.97 µM)	2.37 µg/mL (≈ 3.55 µM)	–	2.37 µg/mL (≈ 3.55 µM)	–	–
COc1nc2ccc(Br)cc2cc1C(c1ccccc1)C(O)(CCCCN1CCNCC1)CCc1ccccc1 (single isomer, unassigned) [Compound 135]	–	–	1.91 µg/mL (≈ 3.17 µM)	2.4 µg/mL (≈ 3.98 µM)	–	12.02 µg/mL (≈ 19.9 µM)	–	–
COc1nc2ccc(Br)cc2cc1C(c1ccccc1)C(O)(CCCCN1CCN(C)CC1)CCC1CCCCC1 (single isomer, unassigned) [Compound 126]	–	–	4.41 µg/mL (≈ 7.08 µM)	2.21 µg/mL (≈ 3.55 µM)	–	5.55 µg/mL (≈ 8.91 µM)	–	–
CCN(CC)CCCCC(O)(c1ccc2ccccc2c1)C(c1ccccc1)c1cc2cc(Br)ccc2nc1OC (racemic) [Compound 86]	–	–	2.17 µg/mL (≈ 3.55 µM)	2.43 µg/mL (≈ 3.97 µM)	–	2.17 µg/mL (≈ 3.55 µM)	–	–
CSc1nc2ccc(Br)cc2cc1C(c1ccccc1)C(O)(CCCCN(C)C)c1ccc2c(c1)OCO2 (racemic) [Compound 87]	–	–	1.88 µg/mL (≈ 3.17 µM)	2.36 µg/mL (≈ 3.98 µM)	–	2.36 µg/mL (≈ 3.98 µM)	–	–
COc1nc2ccc(Br)cc2cc1C(c1ccccc1)C(O)(CCCCN(C)C)c1cccc(F)c1 (racemic) [Compound 84]	–	–	1.74 µg/mL (≈ 3.16 µM)	9.81 µg/mL (≈ 17.8 µM)	–	11 µg/mL (≈ 19.9 µM)	–	–
COc1nc2ccc(Br)cc2cc1C(c1ccccc1)C(O)(CCCCN1CCCCC1)CCc1ccccc1.Cl (single isomer, unassigned) [Compound 133]	–	–	1.9 µg/mL	2.13 µg/mL	–	12 µg/mL	–	–
COc1nc2ccc(Br)cc2cc1C(c1ccccc1)C(O)(CCCCN(C)C)CCc1ccccc1 (single isomer, unassigned) [Compound 131]	–	–	1.78 µg/mL (≈ 3.17 µM)	2.24 µg/mL (≈ 3.99 µM)	–	11.2 µg/mL (≈ 19.9 µM)	–	–
COc1nc2ccc(Br)cc2cc1C(c1ccccc1)C(O)(CCCCN1CCC(N(C)C)CC1)CCc1ccccc1 (single isomer, unassigned) [Compound 139]	–	–	4.56 µg/mL (≈ 7.07 µM)	5.12 µg/mL (≈ 7.94 µM)	–	12.86 µg/mL (≈ 19.9 µM)	–	–
COc1nc2ccccc2cc1C(c1ccc(-c2ccccc2)cc1)C(O)(CCCCN(C)C)c1ccc2ccccc2c1 (stereo not drawn) [Compound 57]	–	–	4.11 µg/mL (≈ 7.08 µM)	2.31 µg/mL (≈ 3.98 µM)	–	2.59 µg/mL (≈ 4.46 µM)	–	–
COc1nc2ccc(Br)cc2cc1C(c1ccccc1)C(O)(CCCCN1CCC(N(C)C)CC1)CCc1ccccc1 (single isomer, unassigned) [Compound 140]	–	–	4.56 µg/mL (≈ 7.07 µM)	4.56 µg/mL (≈ 7.07 µM)	–	2.57 µg/mL (≈ 3.99 µM)	–	–
COc1nc2ccc(Br)cc2cc1C(c1ccccc1)C(O)(CCCCN1CCCCC1)CCc1ccccc1 (single isomer, unassigned) [Compound 134]	–	–	4.26 µg/mL (≈ 7.08 µM)	2.13 µg/mL (≈ 3.54 µM)	–	12 µg/mL (≈ 19.9 µM)	–	–
COc1nc2ccccc2cc1C(c1ccccc1)C(O)(CCCCN(C)C)c1ccc2ccccc2c1 (stereo not drawn) [Compound 37]	–	–	2.0 µg/mL (≈ 3.96 µM)	1.8 µg/mL (≈ 3.57 µM)	–	–	–	10.1 µg/mL (≈ 20 µM)
COc1nc2ccc(Br)cc2cc1C(c1ccccc1)C(O)(CCCCN1CCNCC1)CCc1ccccc1 (single isomer, unassigned) [Compound 136]	–	–	1.91 µg/mL (≈ 3.17 µM)	2.4 µg/mL (≈ 3.98 µM)	–	5.37 µg/mL (≈ 8.91 µM)	–	–
COc1nc2ccc(Br)cc2cc1C(c1ccccc1)C(O)(CCCCN1CCNCC1)c1ccccc1 (racemic) [Compound 105]	–	–	2.04 µg/mL (≈ 3.55 µM)	2.29 µg/mL (≈ 3.99 µM)	–	11.46 µg/mL (≈ 19.9 µM)	–	–
COc1nc2ccc(Br)cc2cc1C(c1ccccc1)C(O)(CCCCN1CCCCC1)CC(C)C (racemic) [Compound 122]	–	–	1.75 µg/mL (≈ 3.16 µM)	1.96 µg/mL (≈ 3.54 µM)	–	11.05 µg/mL (≈ 20 µM)	–	–
COc1nc2ccc(Br)cc2cc1C(c1ccccc1)C(O)(CCCCN1CCNCC1)c1ccccc1 (racemic) [Compound 104]	–	–	1.82 µg/mL (≈ 3.17 µM)	2.04 µg/mL (≈ 3.55 µM)	–	12.86 µg/mL (≈ 22.4 µM)	–	–
COc1nc2c(C)c(Br)ccc2cc1C(c1ccccc1)C(O)(CCCCN(C)C)c1ccc2ccccc2c1 (racemic) [Compound 80]	–	–	1.89 µg/mL (≈ 3.16 µM)	2.12 µg/mL (≈ 3.55 µM)	–	2.38 µg/mL (≈ 3.98 µM)	–	–
COc1nc2ccc(-c3ccco3)cc2cc1C(c1ccccc1)C(O)(CCCCN(C)C)c1ccccc1 (racemic) [Compound 82]	–	–	1.65 µg/mL (≈ 3.17 µM)	1.65 µg/mL (≈ 3.17 µM)	–	10.39 µg/mL (≈ 20 µM)	–	–
COc1nc2ccc(Br)cc2cc1C(c1ccccc1)C(O)(CCCCN1CCCCC1)c1ccc2ccccc2c1 (racemic) [Compound 96]	–	–	4.42 µg/mL (≈ 7.09 µM)	2.21 µg/mL (≈ 3.54 µM)	–	9.88 µg/mL (≈ 15.8 µM)	–	–
COc1nc2ccc(Br)cc2cc1C(c1ccccc1)C(O)(CCCCN(C)C(C)C)c1ccccc1 (single isomer, unassigned) [Compound 91]	–	–	2.24 µg/mL (≈ 3.99 µM)	2.51 µg/mL (≈ 4.47 µM)	–	12.57 µg/mL (≈ 22.4 µM)	–	–
CCN(CC)CCCCC(O)(CCc1ccccc1)C(c1ccccc1)c1cc2cc(Br)ccc2nc1OC (single isomer, unassigned) [Compound 132]	–	–	2.09 µg/mL (≈ 3.54 µM)	2.09 µg/mL (≈ 3.54 µM)	–	11.76 µg/mL (≈ 19.9 µM)	–	–
COc1nc2ccc(-c3ccco3)cc2cc1C(c1ccccc1)C(O)(CCCCN(C)C)c1ccc2ccccc2c1 (stereo not drawn) [Compound 39]	–	–	2.0 µg/mL (≈ 3.5 µM)	3.6 µg/mL (≈ 6.31 µM)	–	–	–	4.5 µg/mL (≈ 7.88 µM)
